Results reported in patent publication US5488134A, “Preparation of compounds of lignan series” (Shionogi & Co., Ltd., priority 1993, dated 1996).

Columns and labels:
LDL = assay: Inhibitory Action against Oxidative Modification of LDL (Cu2+-induced, TBA reactive substances); type: biochemical, New Zealand White rabbits; details: rabbit LDL 0.2 mg protein/ml, cupric sulfate 0.5 μM Cu2+, 37° C., 24 hours, read-out: LDL-Oxidation Inhibiting IC50
Description: Inhibitory Action against Oxidative Modification of LDL
Experiments were conducted as follows according to the method of Kita, et al. described in proceedings of the National Academy of Sciences, USA, volume 84, pages 5928 (1987).
First, LDL was separated from the blood of New Zealand White rabbits fed with a feed containing 0.5% of cholesterol for three weeks and dissolved in phosphate-buffered physiological saline (final LDL concentration: 0.2 mg protein/ml). To this was added an ethanolic solution of each test compound, then cupric sulfate was added thereto (final Cu^2+ concentration: 0.5 μM) and the mixture was incubated at 37° C. for 24 hours.
The amount of lipid peroxides in each of the incubated solutions was measured as thiobarbituric acid reacting substances (TBA reactive substances) and, from the regression line of the inhibitory rate for oxidative modification of LDL and the concentration of the compound, the 50% inhibiting concentration (IC50) was calculated. Quantitative determination of the TBA reactive substances was conducted by measuring the TBA reactive substances in the supernatant (prepared by removing protein from the incubated solution) by means of TBA method.

[1] = Cholesterol-lowering Action in cholesterol-fed mice; type: in vivo; details: male ICR mice, feed with 1% cholesterol and 0.5% sodium cholate, 0.12% test compound in feed, seven days; for (VLDL + LDL) Cholesterol Lowering Rate: total minus HDL cholesterol; for Total Cholesterol Lowering Rate: serum
Description: Cholesterol-lowering Action
Male ICR mice (body weight: 30-40 grams) were freely fed for seven days with a feed containing 1% of cholesterol and 0.5% of sodium cholate to which 0.12% of the test compound was added (no such a compound was added for the control group), then blood was collected from the mice and the total cholesterol in serum was measured by the method of Allain described in Clinical Chemistry, volume 20, page 470 (1974).
Total amount of VLDL cholesterol and LDL cholesterol was calculated by subtracting the amount of HDL cholesterol from the amount of total cholesterol. The amount of the HDL cholesterol was measured by the method of Ash and Hentschel described in Clinical Chemistry, volume 24, page 2180 (1978).
Cholesterol lowering action of the test compound was evaluated from the cholesterol lowering rate calculated from the following expressions. [formula]

| IC50 (LDL) [nM] | SMILES | (VLDL + LDL) Cholesterol Lowering Rate [1] [%] | Total Cholesterol Lowering Rate [1] [%] |
| --- | --- | --- | --- |
| 1520 | COC(=O)c1c(C(=O)c2ccc(C(F)(F)F)cc2)c(O)c2cc(OC)c(OC)c(OC)c2c1-c1ccc(OC)c(OC)c1 [Example 1, 1-(3,4-Dimethoxyphenyl)-4-hydroxy-2-(methoxycarbonyl)-3-[4-(trifluoromethyl)benzoyl]-6,7,8-trimethoxynaphthalene] | 61 | 22 |
| 1420 | COC(=O)c1c(C(=O)c2ccc(Cl)cc2)c(O)c2cc(OC)c(OC)c(OC)c2c1-c1ccc(OC)c(OC)c1 [Example 2, 3-(4-Chlorobenzoyl)-1-(3,4-dimethoxyphenyl)-4-hydroxy-2-(methoxycarbonyl)-6,7,8-trimethoxynaphthalene] | 74 | 28 |
